Active and inactive are the calls of the source. The calls are words filed in the database; no cut-off is given here.
Tests used:
[1] = (§1) Inhibition of thrombin-induced platelet aggregation in human platelets after 5 mins by turbidimetric method; assay type: functional, cell-based
Platelet = experiment: as §1; assay type: functional, cell-based
[2] = Inhibition of PDE3 in guinea pig ventricle; set-up: species or system Cavia porcellus

| SMILES | IC50 [1] | Activity (Platelet) | IC50 [2] |
| --- | --- | --- | --- |
| COC(=O)C(=Cc1cnn(Cc2ccccc2)c(=O)c1)C(=O)OC | 4.86 µM |  |  |
| Cc1[nH]c(=O)c(C#N)cc1-c1ccncc1 [MILRINONE] | 4.7 µM |  |  |
| Cn1ncc(C=C(C(=O)OC(C)(C)C)C(=O)OC(C)(C)C)cc1=O | 95 µM |  |  |
| N#CC(C#N)=Cc1cnn(Cc2ccccc2)c(=O)c1 | 126 µM |  |  |
| CCOC(=O)C(=Cc1cnn(Cc2ccccc2)c(=O)c1)C(=O)OCC | 3.62 µM |  |  |
| CC(C)OC(=O)C(=Cc1cnn(Cc2ccccc2)c(=O)c1)C(=O)OC(C)C | 2.9 µM |  |  |
| O=C(OCc1ccccc1)C(=Cc1cnn(Cc2ccccc2)c(=O)c1)C(=O)OCc1ccccc1 | 1.36 µM | Dose-dependent effect |  |
| CC(C)OC(=O)C(=Cc1cc(=O)[nH]nc1-c1ccccc1)C(=O)OC(C)C | 17.5 µM | Dose-dependent effect |  |
| COC(=O)C(=Cc1cc(=O)n(C)nc1-c1ccccc1)C(=O)OC | 9.2 µM |  | 2000 µM |
| O=C(OCc1ccccc1)C(=Cc1cn[nH]c(=O)c1)C(=O)OCc1ccccc1 | 3.58 µM |  |  |
| O=C1C(CC[S+]([O-])c2ccccc2)C(=O)N(c2ccccc2)N1c1ccccc1 (configuration not stated) [SULFINPYRAZONE] | 509 µM |  |  |
| Cn1nc(-c2ccccc2)c(C=C(C(=O)OCc2ccccc2)C(=O)OCc2ccccc2)cc1=O | 1.4 µM |  |  |
| N#C/C=C/c1cnn(Cc2ccccc2)c(=O)c1 | 221 µM |  |  |
| O=C(OCc1ccccc1)C(=Cc1cc(=O)[nH]nc1-c1ccccc1)C(=O)OCc1ccccc1 | 1.8 µM |  |  |
| O=C(/C=C/c1cnn(Cc2ccccc2)c(=O)c1)c1ccccc1 | 170 µM |  |  |
| O=C(/C=C/c1cc(=O)[nH]nc1-c1ccccc1)c1ccccc1 | 142 µM |  |  |

| SMILES | IC50 [1] | Activity (Platelet) | IC50 [2] |
| --- | --- | --- | --- |
| CC(C)OC(=O)C(=Cc1cc(=O)n(C)nc1-c1ccccc1)C(=O)OC(C)C | 4.1 µM |  |  |
| COC(=O)C(=Cc1cc(=O)[nH]nc1-c1ccccc1)C(=O)OC | 45 µM | Dose-dependent effect | 2000 µM |
| Cn1ncc(C=C(C(=O)OCc2ccccc2)C(=O)OCc2ccccc2)cc1=O | 1.64 µM |  |  |
| Cn1ncc(C=C(C#N)C#N)cc1=O | 475 µM |  |  |
| COC(=O)C(=Cc1cnn(C)c(=O)c1)C(=O)OC | 15.6 µM |  |  |
| COC(=O)C(=Cc1cn[nH]c(=O)c1)C(=O)OC | 40.2 µM |  |  |
| CC(C)(C)OC(=O)C(=Cc1cnn(Cc2ccccc2)c(=O)c1)C(=O)OC(C)(C)C | 6.25 µM |  |  |
| CCOC(=O)C(=Cc1cc(=O)n(C)nc1-c1ccccc1)C(=O)OCC | 17 µM |  |  |
| CC(C)OC(=O)C(=Cc1cnn(C)c(=O)c1)C(=O)OC(C)C | 13.3 µM |  |  |
| CCOC(=O)C(=Cc1cnn(C)c(=O)c1)C(=O)OCC | 12.3 µM |  |  |
| CC(C)(C)OC(=O)C(=Cc1cc(=O)[nH]nc1-c1ccccc1)C(=O)OC(C)(C)C | 7.5 µM |  |  |
| Cn1nc(-c2ccccc2)c(C=C(C(=O)OC(C)(C)C)C(=O)OC(C)(C)C)cc1=O | 45 µM |  |  |
| COCn1nc(-c2ccccc2)c(/C=C/C(=O)OC)cc1=O |  | inactive |  |
| CCOC(=O)C(=Cc1cc(=O)[nH]nc1-c1ccccc1)C(=O)OCC | 20 µM |  | 2000 µM |
| CCOC(=O)C(=Cc1cn[nH]c(=O)c1)C(=O)OCC | 8.7 µM |  |  |
